Read-outs that look alike come from different tables or passages of the source.
Columns and labels:
ELO(XI) elongase = assay: Expression of ELO(XI) in yeast (feeding, GLC of FAMEs); assay type: cell-based, Xenopus laevis; conditions: amounts fed: in each case 250 μM
Experimental: (§1) The yeasts were subsequently plated onto complete uracil dropout minimal medium supplemented with 2% glucose.
(§2) Fatty acid methyl esters (FAMEs) were prepared from the yeast cell sediments by acid methanolysis. […] The FAMEs were extracted by twice extracting with petroleum ether (PE). […] (holding).
(§3) Thereafter, the FAMEs were analyzed via GLC.

ELO(Ci) elongase = assay: Expression of ELO(Ci) in yeast (feeding, GLC of FAMEs); assay type: cell-based, Ciona intestinalis; conditions: amounts fed: in each case 250 μM
Experimental: The yeasts were subsequently plated onto complete uracil dropout minimal medium supplemented with 2% glucose. […] Fatty acid methyl esters (FAMEs) were prepared from the yeast cell sediments by acid methanolysis. […] The FAMEs were extracted by twice extracting with petroleum ether (PE). […] (holding). […] Thereafter, the FAMEs were analyzed via GLC.

OtElo2.1 (Δ6-elongase) = assay type: cell-based, Ostreococcus tauri
OtElo2 (Δ6-elongase) = assay type: cell-based, Ostreococcus tauri
TL16y2 Δ5-elongase = assay: Expression of TL16y2 in yeast (feeding experiments, GC); assay type: cell-based, Thraustochytrium ssp.
Experimental: as §1
(§4) The substrate specificity of BioTaurELO1 was determined after expression and feeding of various fatty acids (FIG. 6). […] After the fatty acids had been extracted from the yeasts, they were transmethylated and separated by gas chromatography. The elongation products originating from the two fatty acids which had been fed are identified by arrows.
The functionality and substrate specificity of TL16y2 were determined after expression and feeding of various fatty acids. […] The feeding experiments were carried out in the same manner as described for BioTaurELO1. The substrates which have been fed can be detected in large amounts in all transgenic yeasts. […] This means that the gene TL16y2 has been expressed functionally.

BioTaurELO1 Δ5-elongase = assay type: cell-based, Thraustochytrium aureum ATCC34304
Experimental: as §1, §4

[1] = test system: biosynthesis of DHA (OmElo3, Euglena gracilis Δ4-desaturase, Phaeodactylum tricornutum Δ5-desaturase); assay: Reconstitution of the synthesis of DHA in yeast by coexpressing OmElo3, EgD4 and PtD5; assay type: cell-based, Saccharomyces cerevisiae
Experimental: The reconstitution of the biosynthesis of DHA (22:6 ω3) was carried out starting from EPA (20:5 ω3) or stearidonic acid (18:4 ω3) by coexpressing OmElo3 together with the Euglena gracilis Δ4-desaturase or the Phaeodactylum tricornutum Δ5-desaturase and the Euglena gracilis Δ4-desaturase. To this end, the expression vectors pYes2-EgD4 and pESCLeu-PtD5 were additionally constructed. The abovementioned yeast strain which is already transformed with pYes3-OmElo3 (SEQ ID NO: 55), was then transformed further with pYes2-EgD4, or simultaneously with pYes2-EgD4 and pESCLeu-PtD5. […] The cultures were subsequently incubated for a further 120 hours at 15° C.
The additional introduction of the EEgΔ4-desaturase led to the conversion of 22:5 ω3 into 22:6 ω3 DHA. After coexpression of OmElo3 and EgD4, up to 3% DHA was detected in yeasts.
In a further coexpression experiment, OmElo3, EgD4 and a Δ5-desaturase from P. tricomutum (PtD5) were expressed together. The transgenic yeasts were fed stearidonic acid (18:4 ω3) and analyzed (FIG. 4). OmElo3 elongated the fed fatty acid 18:4 ω3 to give 20:4 ω3 (60% elongation). The latter was desaturated by PtD5 to give 20:5 ω3. The PtD5 activity amounted to 15%. Furthermore, 20:5 ω3 was elongated by […] to give 22:5 ω3. Thereafter, the newly synthesized 22:5 ω3 was desaturated to give 22:6 ω3 (DHA). Up to 0.7% of DHA was obtained in these experiments.

PtELO6 (Δ6-elongase) = assay: Substrate specificity of PtELO6 in yeast (feeding, GLC of FAMEs); assay type: cell-based, Phaeodactylum tricornutum; conditions: fatty acids fed to yeast pYES2-PtELO6
OtElo1 (Δ5-elongase) = assay type: cell-based, Ostreococcus tauri; conditions: yeast transformed with pOTE1 (Table 18)
OtElo1.2 (Δ5-elongase) = assay type: cell-based, Ostreococcus tauri; conditions: yeast transformed with pOTE1.2 (Table 18)
TpELO3 (Δ6-elongase) = assay: Expression of TpELO3 in yeast (feeding, GLC of FAMEs); assay type: cell-based, Thalassiosira pseudonana
Experimental: as §1, §2, §3

OmELO2 = assay: Functional characterization of OmELO2 in yeast (fatty acid feeding, GLC of FAMEs); assay type: cell-based, Oncorhynchus mykiss; conditions: expression in yeast
OmElo3 elongase = assay: Functional characterization of OmELO3 in yeast (fatty acid feeding, GLC of FAMEs); assay type: cell-based, Oncorhynchus mykiss; conditions: expression in yeast, different substrates
[2] = 250 μm fatty acid fed (Table 7)
[3] = fatty acid fed to yeast expressing BioTaurELO1

Molecule: CCCCCCCCCCCCCCCC(=O)O [16:0]
- Conversion of the starting materials by ELO(XI) in % (ELO(XI) elongase): 3%
- Conversion of the starting materials by ELO(Ci) in % (ELO(Ci) elongase): 0%

Molecule: CCCCCC/C=C\CCCCCCCC(=O)O [16:1^Δ9, palmitoleic acid]
- Conversion of the starting materials by ELO(XI) in % (ELO(XI) elongase): 0%
- Conversion of the starting materials by ELO(Ci) in % (ELO(Ci) elongase): 0%

Molecule: CCCCCCCCCCCCCCCCCC(=O)O [18:0]
- Conversion of the starting materials by ELO(XI) in % (ELO(XI) elongase): 2%
- Conversion of the starting materials by ELO(Ci) in % (ELO(Ci) elongase): 0%

Molecule: CCCCC/C=C\C/C=C\CCCCCCCC(=O)O [18:2^Δ9,12, linoleic acid]
- Conversion of the starting materials by ELO(XI) in % (ELO(XI) elongase): 3%
- Conversion of the starting materials by ELO(Ci) in % (ELO(Ci) elongase): 23%

Molecule: CCCCC/C=C\C/C=C\CC/C=C\CCCC(=O)O [18:3^Δ5,9,12, pinolenic acid (all-cis-5,9,12-octadecatrienoic acid)]
- Conversion of the starting materials by ELO(XI) in % (ELO(XI) elongase): 13%
- Conversion of the starting materials by ELO(Ci) in % (ELO(Ci) elongase): 38%

Molecule: CCCCC/C=C\C/C=C\C/C=C\CCCCC(=O)O [18:3^Δ6,9,12, γ-linolenic acid]
- Conversion rate of OtElo2.2 (in %) (OtElo2.1 (Δ6-elongase)): 55.7%
- Conversion rate of OtElo2 (in %) (OtElo2 (Δ6-elongase)): 15.3%
- Conversion of the starting materials by ELO(XI) in % (ELO(XI) elongase): 12%
- conversion rate in % (TL16y2 Δ5-elongase; [2]): 74.9%
- conversion rate (BioTaurELO1 Δ5-elongase): 65.28%
- Conversion of the starting materials by ELO(Ci) in % (ELO(Ci) elongase): 10%

Molecule: CC/C=C\C/C=C\C/C=C\C/C=C\CCCCC(=O)O [18:4^Δ6,9,12,15, stearidonic acid]
- Conversion rate of OtElo2.2 (in %) (OtElo2.1 (Δ6-elongase); yeast transformed with pOTE2.1 (Table 19)): 70.4%
- elongation of 18:4 ω3 to 20:4 ω3 ([1]; coexpression of OmElo3, EgD4 and PtD5, fed 18:4 ω3): 60%
- Conversion rate of OtElo2 (in %) (OtElo2 (Δ6-elongase); yeast transformed with pOTE2 (Table 19)): 21.1%
- Conversion of the starting materials by ELO(XI) in % (ELO(XI) elongase): 20%
- conversion rate in % (TL16y2 Δ5-elongase; [2]): 79.4%
- conversion rate (BioTaurELO1 Δ5-elongase; [3]): 65.66%
- Conversion of the starting materials by ELO(Ci) in % (ELO(Ci) elongase): 3%

Molecule: CCCCC/C=C\C/C=C\C/C=C\CCCCCCC(=O)O [20:3^Δ8,11,14, dihomo-γ-linolenic acid]
- conversion by PtELO6 (PtELO6 (Δ6-elongase)): not converted
- Conversion of the starting materials by ELO(XI) in % (ELO(XI) elongase): 5%
- Conversion of the starting materials by ELO(Ci) in % (ELO(Ci) elongase): 10%

Molecule: CC/C=C\C/C=C\C/C=C\CCCCCCCCCC(=O)O [20:3^Δ11,14,17]
- conversion by PtELO6 (PtELO6 (Δ6-elongase)): not converted
- Conversion of the starting materials by ELO(XI) in % (ELO(XI) elongase): 13%
- Conversion of the starting materials by ELO(Ci) in % (ELO(Ci) elongase): 8%

Molecule: CCCCC/C=C\C/C=C\C/C=C\C/C=C\CCCC(=O)O [20:4^Δ5,8,11,14, arachidonic acid]
- Conversion rate of OtElo1 (in %) (OtElo1 (Δ5-elongase)): 10.8 ± 0.6%
- conversion by PtELO6 (PtELO6 (Δ6-elongase)): not converted
- Conversion of the starting materials by ELO(XI) in % (ELO(XI) elongase): 15%
- conversion rate in % (TL16y2 Δ5-elongase; [2]): 20.3%
- conversion rate (BioTaurELO1 Δ5-elongase; [3]): 14.47%
- Conversion rate of OtElo1.2 (in %) (OtElo1.2 (Δ5-elongase)): 38.0%
- Conversion of the starting materials by ELO(Ci) in % (ELO(Ci) elongase): 10%

Molecule: CC/C=C\C/C=C\C/C=C\C/C=C\C/C=C\CCCC(=O)O [20:5^Δ5,8,11,14,17, eicosapentaenoic acid]
- elongation of 20:5 ω3 to 22:5 ω3 ([1]; yeast with pYes3-OmElo3 and blank vector pYes2, fed 20:5 ω3): 65%
- Conversion rate of OtElo1 (in %) (OtElo1 (Δ5-elongase)): 46.8 ± 3.6%
- Conversion of the starting materials by ELO(XI) in % (ELO(XI) elongase): 10%
- conversion rate in % (TL16y2 Δ5-elongase; 50 μm fatty acid fed): 41%
- conversion rate in % (TL16y2 Δ5-elongase; [2]): 8%
- conversion rate (BioTaurELO1 Δ5-elongase; [3]): 22.01%
- conversion rate (BioTaurELO1 Δ5-elongase; when feeding GLA and EPA together): 9.99%
- Conversion rate of OtElo1.2 (in %) (OtElo1.2 (Δ5-elongase)): 68.6%
- Conversion of the starting materials by ELO(Ci) in % (ELO(Ci) elongase): 15%

Molecule: CCCCCC=CCC=CCC=CCC=CCCCCCC(=O)O [22:4^Δ7,10,13,16, docosatetraenoic acid]
- conversion by PtELO6 (PtELO6 (Δ6-elongase)): not converted
- Conversion of the starting materials by ELO(XI) in % (ELO(XI) elongase): 0%
- Conversion of the starting materials by ELO(Ci) in % (ELO(Ci) elongase): 0%

Molecule: CC/C=C\C/C=C\C/C=C\C/C=C\C/C=C\C/C=C\CCC(=O)O [22:6^Δ4,7,10,13,16,19, docosahexaenoic acid]
- Conversion of the starting materials by ELO(XI) in % (ELO(XI) elongase): 0%
- Conversion of the starting materials by ELO(Ci) in % (ELO(Ci) elongase): 0%

Molecule: eicosadienoic acid [20:2^Δ11,14]
- conversion by PtELO6 (PtELO6 (Δ6-elongase)): not converted

B1: TpELO3: Δ6-elongase from Thalassiosira pseudonana, SEQ ID NO: 45 (protein, listed as Thalassiosira pseudonana)
chain: MDAYNAAMDKIGAAIIDWSDPDGKFRADREDWWLCDFRSAITIALIYIAFVILGSAVMQSLPAMDPYPIKFLYNVSQIFLCAYMTVEAGFLAYRNGYTVMPCNHFNVNDPPVANLLWLFYISKVWDFWDTIFIVLGKKWRQLSFLHVYHHTTIFLFYWLNANVLYDGDIFLTILLNGFIHTVMYTYYFICMHTKDSKTGKSLPIWWKSSLTAFQLLQFTIMMSQATYLVFHGCDKVSLRITIVYFVSLLSLFFLFAQFFVQSYMAPKKKKSA
modifications: CDS (1)..(819): Delta-5 elongase
- % conversion, column 5 (TpELO3 (Δ6-elongase); fed 250 μm arachidonic acid): 0%
- % conversion, column 6 (TpELO3 (Δ6-elongase); fed 250 μm eicosapentaenoic acid): 0%
- % conversion, column 4 (TpELO3 (Δ6-elongase); fed 250 μm stearidonic acid): 85%
- % conversion, column 3 (TpELO3 (Δ6-elongase); fed 250 μm γ-linolenic acid): 75%

B2: OmELO2: gene product from Oncorhynchus mykiss, SEQ ID NO: 51, expressed in yeast (protein)
chain: MASTWQSVQSMRQWILENGDKRTDPWLLVYSPMPVAIIFLLYLGVVWAGPKLMKRREPVDLKAVLIVYNFAMVCLSVYMFHEFLVTSLLSNYSYLCQPVDYSTSPLAMRMAKVCWWFFFSKVIELADTVFFILRKKNSQLTFLHVYHHGTMIFNWWAGVKYLAGGQSFFIGLLNTFVHIVMYSYYGLAALGPHTQKYLWWKRYLTSLQLLQFVLLTTHTGYNLFTECDFPDSMNAVVFAYCVSLIALFSNFYYQSYLNRKSKKT
modifications: Oncorhynchus mykiss; CDS (1)..(795): Delta-5 elongase
- elongase activity (OmELO2): no elongase activity

B3: OmELO3: elongase from Oncorhynchus mykiss, SEQ ID NO: 53 (protein)
chain: METFNYKLNMYIDSWMGPRDERVQGWLLLDNYPPTFALTVMYLLIVWMGPKYMRHRQPVSCRGLLLVYNLGLTILSFYMFYEMVSAVWHGDYNFFCQDTHSAGETDTKIINVLWWYYFSKLIEFMDTFFFILRKNNHQITFLHIYHHASMLNIWWFVMNWVPCGHSYFGASLNSFIHVLMYSYYGLSAVPALRPYLWWKKYITQVQLIQFFLTMSQTICAVIWPCDFPRGWLYFQIFYVITLIALFSNFYIQTYKKHLVSQKKEYHQNGSVASLNGHVNGVTPTETITHRKVRGD
modifications: Oncorhynchus mykiss; CDS (1)..(885): Delta-5 elongase
- elongase activity (OmElo3 elongase): pronounced activity

— patent publication US10035989B2, “Method for producing polyunsaturated fatty acids in transgenic plants” (BASF Plant Science GmbH, priority 2004, dated 2018)
